{"source": "paper PMC6364417", "about": "“Kinase inhibitor library screening identifies synergistic drug combinations effective in sensitive and resistant melanoma cells” (Journal of Experimental & Clinical Cancer Research : CR, 2019)", "test_in_all_cases": "Kinase inhibitor library screening, PrestoBlue cell viability, 1 or 10 μM, 72 h", "key": {"501Mel cells (parental)": {"test_system": "501Mel cells (parental)", "conditions": "72 h", "how_it_was_run": "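Sensitive parental cells and their resistant derivatives were exposed to library compounds for 72 h. Values represent viability as a percentage of untreated cells.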"}, "[1]": {"test_system": "501Mel-GP cells (Dabrafenib-resistant)", "conditions": "72 h"}, "[2]": {"test_system": "501Mel-XP cells (Vemurafenib-resistant)", "conditions": "72 h"}, "A375 cells (parental)": {"test_system": "A375 cells (parental)"}, "[3]": {"test_system": "A375-GP cells (Dabrafenib-resistant)"}, "[4]": {"test_system": "A375-XP cells (Vemurafenib-resistant)"}, "IGR37 cells (parental)": {"test_system": "IGR37 cells (parental)"}, "[5]": {"test_system": "IGR37-GP cells (Dabrafenib-resistant)"}, "[6]": {"test_system": "IGR37-XP cells (Vemurafenib-resistant)"}}, "data": [{"smiles": "Cc1cnc(NC(=O)Nc2cc(Br)c(C)cc2OC[C@@H]2CNCCO2)cn1", "note": "[LY2603618 (IC-83)]", "values": [{"measurement": "cell viability (kinase inhibitor library screening)", "setting": "501Mel cells (parental); 501Mel Parental, 1μΜ", "result": 84.2, "unit": "%"}, {"measurement": "cell viability (kinase inhibitor library screening)", "setting": "501Mel cells (parental); 501Mel Parental, 10μΜ", "result": 2.1, "unit": "%"}, {"measurement": "cell viability (kinase inhibitor library screening)", "setting": "[1]; 501Mel GP, 1μΜ", "result": 91.7, "unit": "%"}, {"measurement": "cell viability (kinase inhibitor library screening)", "setting": "[1]; 501Mel GP, 10μΜ", "result": 4.4, "unit": "%"}, {"measurement": "cell viability (kinase inhibitor library screening)", "setting": "[2]; 501Mel XP, 1μΜ", "result": 69.5, "unit": "%"}, {"measurement": "cell viability (kinase inhibitor library screening)", "setting": "[2]; 501Mel XP, 10μΜ", "result": -0.8, "unit": "%"}, {"measurement": "cell viability (kinase inhibitor library screening)", "setting": "A375 cells (parental); A375 Parental, 10μΜ, 72 h", "result": 15.4, "unit": "%"}, {"measurement": "cell viability (kinase inhibitor library screening)", "setting": "A375 cells (parental); A375 Parental, 1μΜ, 72 h", "result": 86.3, "unit": "%"}, {"measurement": "cell viability (kinase inhibitor library screening)", "setting": "[3]; A375 GP, 10μΜ, 72 h", "result": 11.5, "unit": "%"}, {"measurement": "cell viability (kinase inhibitor library screening)", "setting": "[4]; A375 XP, 1μΜ, 72 h", "result": 87.2, "unit": "%"}, {"measurement": "cell viability (kinase inhibitor library screening)", "setting": "[4]; A375 XP, 10μΜ, 72 h", "result": 15.7, "unit": "%"}, {"measurement": "cell viability (kinase inhibitor library screening)", "setting": "IGR37 cells (parental); IGR37 Parental, 1μΜ, 72 h", "result": 81.7, "unit": "%"}, {"measurement": "cell viability (kinase inhibitor library screening)", "setting": "IGR37 cells (parental); IGR37 Parental, 10μΜ, 72 h", "result": 37.5, "unit": "%"}, {"measurement": "cell viability (kinase inhibitor library screening)", "setting": "[5]; IGR37 GP, 1μΜ, 72 h", "result": 73.8, "unit": "%"}, {"measurement": "cell viability (kinase inhibitor library screening)", "setting": "[5]; IGR37 GP, 10μΜ, 72 h", "result": 67.9, "unit": "%"}, {"measurement": "cell viability (kinase inhibitor library screening)", "setting": "[6]; IGR37 XP, 1μΜ, 72 h", "result": 52.7, "unit": "%"}, {"measurement": "cell viability (kinase inhibitor library screening)", "setting": "[6]; IGR37 XP, 10μΜ, 72 h", "result": 26.7, "unit": "%"}]}, {"smiles": "O=c1cc(-c2cccc3c2Sc2ccccc2S3)oc(N2CCOCC2)c1", "note": "[KU-55933]", "values": [{"measurement": "cell viability (kinase inhibitor library screening)", "setting": "501Mel cells (parental); 501Mel Parental, 10μΜ", "result": 90.2, "unit": "%"}, {"measurement": "cell viability (kinase inhibitor library screening)", "setting": "[1]; 501Mel GP, 1μΜ", "result": 98.9, "unit": "%"}, {"measurement": "cell viability (kinase inhibitor library screening)", "setting": "[1]; 501Mel GP, 10μΜ", "result": 76.6, "unit": "%"}, {"measurement": "cell viability (kinase inhibitor library screening)", "setting": "[2]; 501Mel XP, 1μΜ", "result": 87.7, "unit": "%"}, {"measurement": "cell viability (kinase inhibitor library screening)", "setting": "[2]; 501Mel XP, 10μΜ", "result": 65.9, "unit": "%"}, {"measurement": "cell viability (kinase inhibitor library screening)", "setting": "A375 cells (parental); A375 Parental, 10μΜ, 72 h", "result": 90.0, "unit": "%"}, {"measurement": "cell viability (kinase inhibitor library screening)", "setting": "A375 cells (parental); A375 Parental, 1μΜ, 72 h", "result": 105.8, "unit": "%"}, {"measurement": "cell viability (kinase inhibitor library screening)", "setting": "[3]; A375 GP, 1μΜ, 72 h", "result": 92.9, "unit": "%"}, {"measurement": "cell viability (kinase inhibitor library screening)", "setting": "[3]; A375 GP, 10μΜ, 72 h", "result": 89.1, "unit": "%"}, {"measurement": "cell viability (kinase inhibitor library screening)", "setting": "[4]; A375 XP, 1μΜ, 72 h", "result": 104.1, "unit": "%"}, {"measurement": "cell viability (kinase inhibitor library screening)", "setting": "[4]; A375 XP, 10μΜ, 72 h", "result": 92.4, "unit": "%"}, {"measurement": "cell viability (kinase inhibitor library screening)", "setting": "IGR37 cells (parental); IGR37 Parental, 1μΜ, 72 h", "result": 113.8, "unit": "%"}, {"measurement": "cell viability (kinase inhibitor library screening)", "setting": "IGR37 cells (parental); IGR37 Parental, 10μΜ, 72 h", "result": 80.4, "unit": "%"}, {"measurement": "cell viability (kinase inhibitor library screening)", "setting": "[5]; IGR37 GP, 1μΜ, 72 h", "result": 98.2, "unit": "%"}, {"measurement": "cell viability (kinase inhibitor library screening)", "setting": "[5]; IGR37 GP, 10μΜ, 72 h", "result": 67.8, "unit": "%"}, {"measurement": "cell viability (kinase inhibitor library screening)", "setting": "[6]; IGR37 XP, 1μΜ, 72 h", "result": 105.2, "unit": "%"}, {"measurement": "cell viability (kinase inhibitor library screening)", "setting": "[6]; IGR37 XP, 10μΜ, 72 h", "result": 34.9, "unit": "%"}]}, {"smiles": "NC(=O)c1ccc(N(C(N)=O)c2c(F)cccc2F)nc1-c1ccc(F)cc1F", "note": "[VX-702]", "values": [{"measurement": "Cell viability in kinase inhibitor library screening, 501Mel Parental, 10μΜ", "setting": "501Mel cells (parental); 501Mel Parental, 10μΜ, in %", "result": 97.1}, {"measurement": "Cell viability in kinase inhibitor library screening, 501Mel GP, 1μΜ", "setting": "[1]; 501Mel GP, 1μΜ, in %", "result": 99.8}, {"measurement": "Cell viability in kinase inhibitor library screening, 501Mel GP, 10μΜ", "setting": "[1]; 501Mel GP, 10μΜ, in %", "result": 87.7}, {"measurement": "Cell viability in kinase inhibitor library screening, 501Mel XP, 1μΜ", "setting": "[2]; 501Mel XP, 1μΜ, in %", "result": 91.5}, {"measurement": "Cell viability in kinase inhibitor library screening, 501Mel XP, 10μΜ", "setting": "[2]; 501Mel XP, 10μΜ, in %", "result": 83.4}, {"measurement": "Cell viability in kinase inhibitor library screening, A375 Parental, 10μΜ", "setting": "A375 cells (parental); A375 Parental, 10μΜ, 72 h", "result": 90.0}, {"measurement": "Cell viability in kinase inhibitor library screening, A375 Parental, 1μΜ", "setting": "A375 cells (parental); A375 Parental, 1μΜ, 72 h", "result": 102.7}, {"measurement": "Cell viability in kinase inhibitor library screening, A375 GP, 10μΜ", "setting": "[3]; A375 GP, 10μΜ, 72 h", "result": 97.2}, {"measurement": "Cell viability in kinase inhibitor library screening, A375 XP, 1μΜ", "setting": "[4]; A375 XP, 1μΜ, 72 h", "result": 104.7}, {"measurement": "Cell viability in kinase inhibitor library screening, A375 XP, 10μΜ", "setting": "[4]; A375 XP, 10μΜ, 72 h", "result": 104.6}, {"measurement": "Cell viability in kinase inhibitor library screening, IGR37 Parental, 10μΜ", "setting": "IGR37 cells (parental); IGR37 Parental, 10μΜ, 72 h, in %", "result": 103.3}, {"measurement": "Cell viability in kinase inhibitor library screening, IGR37 GP, 10μΜ", "setting": "[5]; IGR37 GP, 10μΜ, 72 h", "result": 93.6, "unit": "%"}, {"measurement": "Cell viability in kinase inhibitor library screening, IGR37 GP, 1μΜ", "setting": "[5]; IGR37 GP, 1μΜ, 72 h, in %", "result": 98.3}, {"measurement": "Cell viability in kinase inhibitor library screening, IGR37 XP, 10μΜ", "setting": "[6]; IGR37 XP, 10μΜ, 72 h", "result": 76.8, "unit": "%"}]}, {"smiles": "C[C@@H]1COC(Nc2ccc3ncnc(Nc4ccc(OCc5nccs5)c(Cl)c4)c3c2)=N1", "note": "[ARRY334543]", "values": [{"measurement": "viability at 1 µM", "setting": "501Mel cells (parental); Homo sapiens, read-out: cell viability, 501Mel Parental, 1μΜ", "result": 97.9, "unit": "%"}, {"measurement": "viability at 10 µM", "setting": "501Mel cells (parental); Homo sapiens, read-out: cell viability, 501Mel Parental, 10μΜ", "result": 87.3, "unit": "%"}, {"measurement": "viability at 1 µM", "setting": "[1]; Homo sapiens, read-out: cell viability, 501Mel GP, 1μΜ", "result": 101, "unit": "%"}, {"measurement": "viability at 10 µM", "setting": "[1]; Homo sapiens, read-out: cell viability, 501Mel GP, 10μΜ", "result": 86.4, "unit": "%"}, {"measurement": "viability at 1 µM", "setting": "[2]; Homo sapiens, read-out: cell viability, 501Mel XP, 1μΜ", "result": 118, "unit": "%"}, {"measurement": "viability at 10 µM", "setting": "[2]; Homo sapiens, read-out: cell viability, 501Mel XP, 10μΜ", "result": 57.2, "unit": "%"}, {"measurement": "viability at 1 µM", "setting": "A375 cells (parental); Homo sapiens, A-375, 72 h, read-out: cell viability, A375 Parental, 1μΜ", "result": 103, "unit": "%"}, {"measurement": "viability at 10 µM", "setting": "A375 cells (parental); Homo sapiens, A-375, 72 h, read-out: cell viability, A375 Parental, 10μΜ", "result": 89.3, "unit": "%"}, {"measurement": "viability at 1 µM", "setting": "[3]; Homo sapiens, A-375, 72 h, read-out: cell viability, A375 GP, 1μΜ", "result": 101, "unit": "%"}, {"measurement": "viability at 10 µM", "setting": "[3]; Homo sapiens, A-375, 72 h, read-out: cell viability, A375 GP, 10μΜ", "result": 83.2, "unit": "%"}, {"measurement": "viability at 1 µM", "setting": "[4]; Homo sapiens, A-375, 72 h, read-out: cell viability, A375 XP, 1μΜ", "result": 107, "unit": "%"}, {"measurement": "viability at 10 µM", "setting": "[4]; Homo sapiens, A-375, 72 h, read-out: cell viability, A375 XP, 10μΜ", "result": 85.8, "unit": "%"}, {"measurement": "viability at 1 µM", "setting": "IGR37 cells (parental); Homo sapiens, IGR-37, 72 h, read-out: cell viability, IGR37 Parental, 1μΜ", "result": 102, "unit": "%"}, {"measurement": "viability at 10 µM", "setting": "IGR37 cells (parental); Homo sapiens, IGR-37, 72 h, read-out: cell viability, IGR37 Parental, 10μΜ", "result": 85.9, "unit": "%"}, {"measurement": "viability at 1 µM", "setting": "[5]; Homo sapiens, IGR-37, 72 h, read-out: cell viability, IGR37 GP, 1μΜ", "result": 89.4, "unit": "%"}, {"measurement": "viability at 10 µM", "setting": "[5]; Homo sapiens, IGR-37, 72 h, read-out: cell viability, IGR37 GP, 10μΜ", "result": 33, "unit": "%"}, {"measurement": "viability at 1 µM", "setting": "[6]; Homo sapiens, IGR-37, 72 h, read-out: cell viability, IGR37 XP, 1μΜ", "result": 71.6, "unit": "%"}, {"measurement": "viability at 10 µM", "setting": "[6]; Homo sapiens, IGR-37, 72 h, read-out: cell viability, IGR37 XP, 10μΜ", "result": 11.7, "unit": "%"}]}]}
